Experimental data from article PMC5218480 (PLoS ONE, 2017).

System: MV-4-11 cells
Test: Gene expression microarray analysis (Affymetrix PrimeView) and GSEA
Type: cell-based, human
Set-up: RFU PODN (11730768_x_at) / Fold change /veh PODN (11730768_x_at) / RFU LINC00158 (11744669_a_at) / Fold change /veh LINC00158 (11744669_a_at) / RFU DUSP10 (11751237_a_at) / Fold change /veh DUSP10 (11751237_a_at) / RFU ID3 (11757404_x_at) / Fold change /veh ID3 (11757404_x_at) / RFU PLEKHG5 (11737974_s_at) / Fold change /veh PLEKHG5 (11737974_s_at) / RFU LRRC4B (11730491_at) / Fold change /veh LRRC4B (11730491_at) / RFU GIMAP4 (11747438_a_at) / Fold change /veh GIMAP4 (11747438_a_at) / RFU KRT8 (11758183_x_at) / Fold change /veh KRT8 (11758183_x_at) / RFU CNN1 (11734310_a_at) / Fold change /veh CNN1 (11734310_a_at) / RFU VPS37D (11726825_at) / Fold change /veh VPS37D (11726825_at) / RFU C10orf10 (11716522_x_at) / Fold change /veh C10orf10 (11716522_x_at) / RFU KIR2DL2 /// KIR2DL4 /// KIR2DL5A /// KIR2DL5B /// KIR2DS1 /// KIR2DS2 /// KIR2DS3 /// KIR2DS4 /// KIR3DL3 /// KIR3DL3 /// KIR3DS1 (11738374_at) / Fold change /veh KIR2DL2 /// KIR2DL4 /// KIR2DL5A /// KIR2DL5B /// KIR2DS1 /// KIR2DS2 /// KIR2DS3 /// KIR2DS4 /// KIR3DL3 /// KIR3DL3 /// KIR3DS1 (11738374_at) / RFU C1QL1 (11718748_at) / Fold change /veh C1QL1 (11718748_at) / RFU TMPRSS4 (11747572_a_at) / Fold change /veh TMPRSS4 (11747572_a_at) / RFU HAMP (11756126_x_at) / Fold change /veh HAMP (11756126_x_at) / RFU RNFT2 (11725882_a_at) / Fold change /veh RNFT2 (11725882_a_at) / RFU NR4A2 (11747474_a_at) / Fold change /veh NR4A2 (11747474_a_at) / RFU ABCC12 (11746883_a_at) / Fold change /veh ABCC12 (11746883_a_at) / RFU TMEM136 (11760407_x_at) / Fold change /veh TMEM136 (11760407_x_at) / RFU CLDN22 /// WWC2 (11732394_at) / Fold change /veh CLDN22 /// WWC2 (11732394_at) / RFU HLA-DPB1 (11760878_x_at) / Fold change /veh HLA-DPB1 (11760878_x_at) / RFU SPINT1 (11716480_a_at) / Fold change /veh SPINT1 (11716480_a_at) / RFU GAP43 (11754022_s_at) / Fold change /veh GAP43 (11754022_s_at) / RFU A4GNT (11735810_at) / Fold change /veh A4GNT (11735810_at) / RFU PRB3 (11715151_x_at) / Fold change /veh PRB3 (11715151_x_at) / RFU TUBB4B (11761932_at) / Fold change /veh TUBB4B (11761932_at) / RFU CAPN14 (11732068_a_at) / Fold change /veh CAPN14 (11732068_a_at) / RFU TMCC2 (11721928_a_at) / Fold change /veh TMCC2 (11721928_a_at) / RFU IRGQ (11745062_a_at) / Fold change /veh IRGQ (11745062_a_at) / RFU FAM174B (11720279_a_at) / Fold change /veh FAM174B (11720279_a_at) / RFU TMPRSS4 (11748680_a_at) / Fold change /veh TMPRSS4 (11748680_a_at) / RFU FAM212B (11763350_a_at) / Fold change /veh FAM212B (11763350_a_at) / RFU PLEKHG5 (11743358_a_at) / Fold change /veh PLEKHG5 (11743358_a_at) / RFU ZSCAN30 (11745921_a_at) / Fold change /veh ZSCAN30 (11745921_a_at) / RFU CMKLR1 (11741424_a_at) / Fold change /veh CMKLR1 (11741424_a_at) / RFU LOC101060620 /// MAPK8IP1 (11723275_at) / Fold change /veh LOC101060620 /// MAPK8IP1 (11723275_at) / RFU SPTSSB (11747773_x_at) / Fold change /veh SPTSSB (11747773_x_at) / RFU PRSS12 (11739890_at) / Fold change /veh PRSS12 (11739890_at) / RFU BIN1 (11741810_x_at) / Fold change /veh BIN1 (11741810_x_at) / RFU WNT11 (11732464_a_at) / Fold change /veh WNT11 (11732464_a_at) / RFU C10orf10 (11716521_a_at) / Fold change /veh C10orf10 (11716521_a_at) / RFU C5orf56 (11738089_at) / Fold change /veh C5orf56 (11738089_at) / RFU CYB561 (11721691_x_at) / Fold change /veh CYB561 (11721691_x_at) / RFU ANKRD19P (11752326_a_at) / Fold change /veh ANKRD19P (11752326_a_at) / RFU OR2T12 /// OR2T33 /// OR2T8 (11738714_s_at) / Fold change /veh OR2T12 /// OR2T33 /// OR2T8 (11738714_s_at) / RFU VCAN (11748164_a_at) / Fold change /veh VCAN (11748164_a_at) / RFU JSRP1 (11732532_at) / Fold change /veh JSRP1 (11732532_at) / RFU KRTAP10-11 (11738290_x_at) / Fold change /veh KRTAP10-11 (11738290_x_at) / RFU MYO3A (11730013_a_at) / Fold change /veh MYO3A (11730013_a_at) / RFU EBF3 (11725865_a_at) / Fold change /veh EBF3 (11725865_a_at) / RFU CAMK2N1 (11719241_x_at) / Fold change /veh CAMK2N1 (11719241_x_at) / RFU C5orf56 (11738088_a_at) / Fold change /veh C5orf56 (11738088_a_at) / RFU OLFML3 (11715873_a_at) / Fold change /veh OLFML3 (11715873_a_at) / RFU LOC100653217 /// NTM (11731650_a_at) / Fold change /veh LOC100653217 /// NTM (11731650_a_at) / RFU MAPK11 (11762145_a_at) / Fold change /veh MAPK11 (11762145_a_at) / RFU FIZ1 (11724087_x_at) / Fold change /veh FIZ1 (11724087_x_at) / RFU OASL (11726364_x_at) / Fold change /veh OASL (11726364_x_at) / RFU SOX15 (11748057_x_at) / Fold change /veh SOX15 (11748057_x_at) / RFU CD79A (11719716_a_at) / Fold change /veh CD79A (11719716_a_at) / RFU HIST1H1D (11736915_at) / Fold change /veh HIST1H1D (11736915_at) / RFU CASKIN2 (11723855_a_at) / Fold change /veh CASKIN2 (11723855_a_at) / RFU LOC730098 (11760151_x_at) / Fold change /veh LOC730098 (11760151_x_at) / RFU OR4N2 (11742367_at) / Fold change /veh OR4N2 (11742367_at) / RFU PRRT2 (11749266_a_at) / Fold change /veh PRRT2 (11749266_a_at) / RFU SNX32 (11753110_a_at) / Fold change /veh SNX32 (11753110_a_at) / RFU CDHR5 (11726645_a_at) / Fold change /veh CDHR5 (11726645_a_at) / RFU RCAN1 (11760418_a_at) / Fold change /veh RCAN1 (11760418_a_at) / RFU FAM167A (11723789_a_at) / Fold change /veh FAM167A (11723789_a_at) / RFU FAM26E (11764081_at) / Fold change /veh FAM26E (11764081_at) / RFU ISYNA1 (11749810_s_at) / Fold change /veh ISYNA1 (11749810_s_at) / RFU ACY1 (11761880_at) / Fold change /veh ACY1 (11761880_at) / RFU 11764098_at / Fold change /veh 11764098_at / RFU SAMD14 (11745864_x_at) / Fold change /veh SAMD14 (11745864_x_at) / RFU NPB (11741838_a_at) / Fold change /veh NPB (11741838_a_at) / RFU TMPRSS6 (11731388_a_at) / Fold change /veh TMPRSS6 (11731388_a_at) / RFU KRTAP10-2 (11738614_at) / Fold change /veh KRTAP10-2 (11738614_at) / RFU ARHGAP8 /// PRR5-ARHGAP8 (11727945_x_at) / Fold change /veh ARHGAP8 /// PRR5-ARHGAP8 (11727945_x_at) / RFU KRTAP5-7 /// NADSYN1 (11734609_at) / Fold change /veh KRTAP5-7 /// NADSYN1 (11734609_at) / RFU RASL12 (11751679_a_at) / Fold change /veh RASL12 (11751679_a_at) / RFU CDKN2B (11736163_a_at) / Fold change /veh CDKN2B (11736163_a_at) / RFU PRF1 (11729649_at) / Fold change /veh PRF1 (11729649_at) / RFU, ZNF638 /// ZNF638-IT1 / Fold change vs veh, ZNF638 /// ZNF638-IT1 / RFU, PANK3 / Fold change vs veh, PANK3 / RFU, SH3YL1 / Fold change vs veh, SH3YL1 / RFU, ZEB2 / Fold change vs veh, ZEB2 / RFU, NRIP1 / Fold change vs veh, NRIP1 / RFU, PTTG1IP / Fold change vs veh, PTTG1IP / RFU, CAPN2 / Fold change vs veh, CAPN2 / RFU, MED14 / Fold change vs veh, MED14 / RFU, SNORA58 / Fold change vs veh, SNORA58 / RFU, C1orf63 / Fold change vs veh, C1orf63 / RFU, LRRFIP1 / Fold change vs veh, LRRFIP1 / RFU, NDUFAF7 / Fold change vs veh, NDUFAF7 / RFU, SLC12A2 / Fold change vs veh, SLC12A2 / RFU, IBTK / Fold change vs veh, IBTK / RFU, ESF1 / Fold change vs veh, ESF1 / Fold change vs veh, TMEM50B / RFU, TAOK1 / Fold change vs veh, TAOK1 / RFU, ACBD3 / Fold change vs veh, ACBD3 / RFU, TMA16 / Fold change vs veh, TMA16 / RFU, RWDD3 / Fold change vs veh, RWDD3 / RFU, BCAT1 / Fold change vs veh, BCAT1 / RFU, EDEM3 / Fold change vs veh, EDEM3 / RFU, TMEM33 / Fold change vs veh, TMEM33 / RFU, WDR75 / Fold change vs veh, WDR75 / RFU, AHCTF1 / Fold change vs veh, AHCTF1 / RFU, TFRC / Fold change vs veh, TFRC / RFU, ZDHHC17 / Fold change vs veh, ZDHHC17 / RFU, NOM1 / Fold change vs veh, NOM1 / RFU, ARL8B / Fold change vs veh, ARL8B / RFU, ZBTB11 / Fold change vs veh, ZBTB11 / RFU, TAMM41 / Fold change vs veh, TAMM41 / RFU, KIAA1704 /// LOC100996395 / Fold change vs veh, KIAA1704 /// LOC100996395 / RFU, ING1 / Fold change vs veh, ING1 / RFU, TRMT61B / Fold change vs veh, TRMT61B / RFU, FUBP3 / Fold change vs veh, FUBP3 / RFU, TP53 / Fold change vs veh, TP53 / RFU, TNKS2 / Fold change vs veh, TNKS2 / RFU, ZFP14 / Fold change vs veh, ZFP14 / RFU, ACTR2 / Fold change vs veh, ACTR2 / RFU, PPP3R1 / Fold change vs veh, PPP3R1 / RFU, PIK3R1 / Fold change vs veh, PIK3R1 / RFU, HNRNPA1 / Fold change vs veh, HNRNPA1 / RFU, RNF170 / Fold change vs veh, RNF170 / RFU, ZNF28 / Fold change vs veh, ZNF28 / RFU, RNGTT / Fold change vs veh, RNGTT / RFU, OGT / Fold change vs veh, OGT / RFU, BRD1 / Fold change vs veh, BRD1 / RFU, MARS / Fold change vs veh, MARS / RFU, ZNF655 / Fold change vs veh, ZNF655 / RFU, FAHD1 / Fold change vs veh, FAHD1 / RFU, BDP1 / Fold change vs veh, BDP1 / RFU, LRRCC1 / Fold change vs veh, LRRCC1 / RFU, ARID1A / Fold change vs veh, ARID1A / RFU, ZNF146 / Fold change vs veh, ZNF146 / RFU, ZNF330 / Fold change vs veh, ZNF330 / RFU, GPN3 / Fold change vs veh, GPN3 / RFU, C9orf123 / Fold change vs veh, C9orf123 / RFU, N4BP2L2 / Fold change vs veh, N4BP2L2 / RFU, ARFIP1 / Fold change vs veh, ARFIP1 / RFU, FAM179B / Fold change vs veh, FAM179B / RFU, BCL10 / Fold change vs veh, BCL10 / RFU, UHRF1BP1L / Fold change vs veh, UHRF1BP1L / RFU, BET1 / Fold change vs veh, BET1 / RFU, CNOT2 / Fold change vs veh, CNOT2 / RFU, ZNF268 / Fold change vs veh, ZNF268 / Fold change vs veh, ZNF507 / RFU, DGCR2 / Fold change vs veh, DGCR2 / RFU, WDSUB1 / Fold change vs veh, WDSUB1 / Fold change vs veh, HSP90B1 /// MIR3652 / RFU, ADSS / Fold change vs veh, ADSS / RFU, GK / Fold change vs veh, GK / RFU, ZNF148 / Fold change vs veh, ZNF148 / RFU, TAF9 / Fold change vs veh, TAF9 / RFU, SLC1A5 / Fold change vs veh, SLC1A5 / RFU, SLMO2 / Fold change vs veh, SLMO2 / RFU, ABCC4 / Fold change vs veh, ABCC4 / RFU, LOC101060439 /// RAP1B / Fold change vs veh, LOC101060439 /// RAP1B / RFU, RFX7 / Fold change vs veh, RFX7 / RFU, GTPBP10 / Fold change vs veh, GTPBP10 / RFU, CNEP1R1 / Fold change vs veh, CNEP1R1 / RFU, BIVM-ERCC5 /// ERCC5 / Fold change vs veh, BIVM-ERCC5 /// ERCC5 / RFU, ILF3 / Fold change vs veh, ILF3 / RFU 11762660_at / Fold change /veh 11762660_at / RFU VCAN (11757783_s_at) / Fold change /veh VCAN (11757783_s_at) / RFU DDX43 (11728927_at) / Fold change /veh DDX43 (11728927_at) / RFU KRT8 (11758188_x_at) / Fold change /veh KRT8 (11758188_x_at) / RFU NKD1 (11759106_at) / Fold change /veh NKD1 (11759106_at) / RFU SRD5A1 (11742802_a_at) / Fold change /veh SRD5A1 (11742802_a_at) / RFU TPSAB1 /// TPSB2 (11721975_s_at) / Fold change /veh TPSAB1 /// TPSB2 (11721975_s_at) / RFU GSTM3 (11746129_a_at) / Fold change /veh GSTM3 (11746129_a_at) / RFU IL23R (11737362_x_at) / Fold change /veh IL23R (11737362_x_at) / RFU TMEM51 (11727254_a_at) / Fold change /veh TMEM51 (11727254_a_at) / RFU PIWIL2 (11732686_x_at) / Fold change /veh PIWIL2 (11732686_x_at) / RFU ORM1 (11744905_x_at) / Fold change /veh ORM1 (11744905_x_at) / RFU CCDC152 (11743942_at) / Fold change /veh CCDC152 (11743942_at) / RFU ECM1 (11717891_a_at) / Fold change /veh ECM1 (11717891_a_at) / RFU IL23R (11748794_a_at) / Fold change /veh IL23R (11748794_a_at) / RFU TNFAIP8L3 (11732012_x_at) / Fold change /veh TNFAIP8L3 (11732012_x_at) / RFU MBOAT4 (11741988_at) / Fold change /veh MBOAT4 (11741988_at) / RFU 11764193_at / Fold change /veh 11764193_at / RFU TMEM53 (11763286_at) / Fold change /veh TMEM53 (11763286_at) / RFU MAGEB2 (11727129_at) / Fold change /veh MAGEB2 (11727129_at) / RFU TMEM200A (11744735_a_at) / Fold change /veh TMEM200A (11744735_a_at) / RFU CCDC152 (11751479_a_at) / Fold change /veh CCDC152 (11751479_a_at) / RFU FAM211A (11726209_a_at) / Fold change /veh FAM211A (11726209_a_at) / RFU RGS16 (11746705_a_at) / Fold change /veh RGS16 (11746705_a_at) / RFU VCAN (11755009_s_at) / Fold change /veh VCAN (11755009_s_at) / RFU RHOB (11743442_s_at) / Fold change /veh RHOB (11743442_s_at) / RFU RGS16 (11720943_a_at) / Fold change /veh RGS16 (11720943_a_at) / RFU RGS16 (11720944_at) / Fold change /veh RGS16 (11720944_at) / RFU, VPS4B / Fold change vs veh, VPS4B / RFU, CREB1 / Fold change vs veh, CREB1 / RFU, DNAJC13 / Fold change vs veh, DNAJC13 / RFU, GNAQ / Fold change vs veh, GNAQ / RFU, CDK5R1 / Fold change vs veh, CDK5R1 / RFU, ZRANB3 / Fold change vs veh, ZRANB3 / RFU, CUL4A / Fold change vs veh, CUL4A / RFU, CCNY / Fold change vs veh, CCNY / RFU, UFL1 / Fold change vs veh, UFL1 / RFU, COG3 / Fold change vs veh, COG3 / RFU, DIAPH2 / Fold change vs veh, DIAPH2 / RFU, SKA2 / Fold change vs veh, SKA2 / RFU, AFF3 / Fold change vs veh, AFF3 / RFU, LMF1 / Fold change vs veh, LMF1 / RFU, IPO11 / Fold change vs veh, IPO11 / RFU, DFFB / Fold change vs veh, DFFB / RFU, FOXP1 / Fold change vs veh, FOXP1 / RFU, CARD8 / Fold change vs veh, CARD8 / RFU, STRN3 / Fold change vs veh, STRN3 / RFU, ADK / Fold change vs veh, ADK / RFU, RASSF2 / Fold change vs veh, RASSF2 / RFU, WIPF1 / Fold change vs veh, WIPF1 / RFU, LARP1B / Fold change vs veh, LARP1B / RFU, RASA1 / Fold change vs veh, RASA1 / RFU, RB1 / Fold change vs veh, RB1 / RFU, PPFIA1 / Fold change vs veh, PPFIA1 / RFU, MAT2A / Fold change vs veh, MAT2A / RFU, CCT5 / Fold change vs veh, CCT5 / RFU, WDR92 / Fold change vs veh, WDR92 / RFU, CUX1 / Fold change vs veh, CUX1 / RFU, TTC7A / Fold change vs veh, TTC7A / RFU, TMEM135 / Fold change vs veh, TMEM135 / RFU, DEPTOR / Fold change vs veh, DEPTOR / RFU, CPM / Fold change vs veh, CPM / RFU, DNAJB6 / Fold change vs veh, DNAJB6 / RFU, CACNA2D3 / Fold change vs veh, CACNA2D3 / RFU, DTX4 / Fold change vs veh, DTX4 / RFU, TFCP2 / Fold change vs veh, TFCP2 / RFU, GMCL1 /// GMCL1P1 / Fold change vs veh, GMCL1 /// GMCL1P1 / RFU, AEBP2 / Fold change vs veh, AEBP2 / RFU, SNHG1 /// SNORD22 /// SNORD25 /// SNORD26 /// SNORD27 /// SNORD28 /// SNORD29 /// SNORD31 / Fold change vs veh, SNHG1 /// SNORD22 /// SNORD25 /// SNORD26 /// SNORD27 /// SNORD28 /// SNORD29 /// SNORD31 / Fold change (Aza/veh), C12orf56 (ProbeSet 11735607_a_at) / Fold change (ACY-1035/veh), C12orf56 (ProbeSet 11735607_a_at) / Fold change (Aza/veh), FGFR1OP (ProbeSet 11751329_s_at) / Fold change (ACY-1035/veh), FGFR1OP (ProbeSet 11751329_s_at) / Fold change (Aza/veh), VPS36 (ProbeSet 11739960_a_at) / Fold change (ACY-1035/veh), VPS36 (ProbeSet 11739960_a_at) / RFU SYPL1 (11715823_x_at) / Fold change /veh SYPL1 (11715823_x_at) / RFU IGFBP7 (11715501_s_at) / Fold change /veh IGFBP7 (11715501_s_at) / RFU REEP3 (11722064_at) / Fold change /veh REEP3 (11722064_at) / RFU IGLL1 (11728026_x_at) / Fold change /veh IGLL1 (11728026_x_at): dose or concentration left out as unconfirmed
Conditions: ProbeSet 11721521_at; LIST B

Structure (SMILES): Nc1ccc(-c2cccs2)cc1NC(=O)c1ccc2c(c1)cc(C1CC1)n2CCN1CCOCC1 [ACY-1035]
- Fold change vs veh, ZDHHC17: 0.90
